Experimental findings from patent US9493489B2, “Boron-containing small molecules as anti-protozoal agents” (Anacor Pharmaceuticals, Inc., priority 2008, dated 2016) are described below.

Series [1] deals with cytochrome P450 enzyme (CP1A2, 2C9, 2D6, 3A4, CYP2C19). Nature of the series: Cytochrome P450 inhibition. The format is in vitro ADME. Particulars: CP1A2, 2C9, 2D6 and 3A4.
Series [2] relates to T. b. brucei or T. b. rhodesiense. Nature of the series: Acute Murine Model B. The format is in vivo, BALB/C mice. Particulars: after 55 days; 50 mg/kg BID IP for 5 days. The method, then: Female BALB/C mice were inoculated with 600 parasites of T. b. brucei or 10^4 parasites of T. b. rhodesiense. 24 hrs post-infection, treatment with 6-(4-chlorophenylsulfinyl)benzo[c][1,2]oxaborol-1(3H)-ol was initiated BID for 5 days at 50 mg/kg BID intraperitoneally (IP). Mice were monitored for 40-60 days for survival. After 10 days, 20% of the untreated mice were parasite free and at 20 days, 0% of the untreated mice were parasite free. After 55 days, 100% of mice treated with 6-(4-chlorophenylsulfinyl)benzo[c][1,2]oxaborol-1(3H)-ol were parasite free.

For series [3], the system named is LAB 110 EATRO strain of T. b. brucei. Nature of the series: Acute Murine Model A. The format is in vivo, Swiss Webster mice. Particulars: for mice parasite free: ip, BID for 4 days; for T. brucei Minimum Effective Dose: bid × 4 days. As to the method: Female Swiss Webster mice were inoculated with 250,000 parasites of the LAB 110 EATRO strain of T. b. brucei. 24 hrs post-infection, treatment was initiated BID for 4 days with 20 mg/kg/dose (40 mg/kg/day) intraperitoneally (IP) or orally (PO), 5 mg/kg BID or 10 mg/kg BID orally (PO). N=3 mice/group. Mice were monitored for 30 days for survival. Pentamidine at 2 mg/kg IP was used as the positive control. After 10 days, 0% of the untreated mice were parasite free. After 10 days, 100% of mice treated with 20 mg/kg, ip, BID of 6-(4-chlorophenylsulfinyl)benzo[c][1,2]oxaborol-1(3H)-ol were parasite free. After 30 days, 100% of mice treated with 10 mg/kg, ip, BID of N-(1-hydroxy-1,3-dihydrobenzo[c][1,2]oxaborol-6-yl)-2-(trifluoromethyl)benzamide were parasite free.

Series [4] in a line: In vitro metabolism, mouse/human liver microsomes. It is filed as in vitro ADME. Particulars: read-out: in vitro metabolism T1/2 (Mouse/human liver microsomes).
The test system of series [5] is TREU 667 strain of T. b. brucei. In words: Chronic CNS Model. The format is in vivo, mice. As to the method: Mice were infected with 10,000 parasites of the TREU 667 strain of T. b. brucei. Twenty one days post-infection mice were treated with 50 mg/kg of the compound BID for 7 days intraperitoneally (IP). Positive control mice were treated with Berenil on Day 4 post-infection. Negative control mice were treated with Berenil on Day 21. Since Berenil is not able to penetrate the CNS, mice treated at Day 21 are not able to cure the infection. Starting 1 week after the end of treatment, mice are monitored for parasitemia and sacrificed if parasites are detected in the blood. Mice that survive 6 months are considered “cured.”

The test system of series [6] is L. infantum MHOM/MA(BE)/67. Nature of the series: Leishmania infantum macrophage screening assay. It is filed as cell-based. Conditions: 120 h, primary screen, reference drugs, primary peritoneal mouse macrophages, 5 days incubation. The method, then:
Parasite and cell cultures. Two Leishmania species (L. infantum MHOM/MA(BE)/67 and L. donovani MHOM/ET/67/L82) were used. The strains were maintained in the Golden Hamster (Mesocricetus auratus). Amastigotes were collected from the spleen of an infected donor hamster using three centrifugation purification steps (300 rpm, keeping the supernatant, 2200 rpm, keeping the supernatants and 3500 rpm, keeping the pellet) and spleen parasite burdens were assessed using the Stauber technique (Stauber L A., Exp Parasitol. 18: 1-11 (1966)). Primary peritoneal mouse macrophages were used as host cell and were collected 2 days after peritoneal stimulation with a 2% potato starch suspension. […]
Assays were performed in 96-well microtiter plates, each well contained 10 μl of the compound dilutions together with 190 μl of macrophage/parasite inoculum (3×10^3 cells+4.5×10^5 parasites/well). […] After 5 days incubation, parasite burdens (mean number of amastigotes/macrophage) were microscopically assessed after staining the cells with a 10% Giemsa solution. The results were expressed as % reduction in parasite burden compared to untreated control wells and an IC50 (50% inhibitory concentration) was calculated. […]
Leishmania infantum MHOM/MA(BE)/67 and L. donovani MHOM/ET/67/L82 strains were used and the IC50-values were determined using an extended dose range (2-fold compound dilutions). […]

A further series addresses P-gp transporter (Homo sapiens, UniProt P08183). In words: P-gp transporter substrate assessment. The format is in vitro ADME.
Series [7] can be described thus: In vitro metabolism, mouse S9. The format is in vitro ADME. Conditions: S9 fraction, read-out: in vitro metabolism T1/2 (Mouse S9).

P-gp transporter, sequence (P08183 whole entry): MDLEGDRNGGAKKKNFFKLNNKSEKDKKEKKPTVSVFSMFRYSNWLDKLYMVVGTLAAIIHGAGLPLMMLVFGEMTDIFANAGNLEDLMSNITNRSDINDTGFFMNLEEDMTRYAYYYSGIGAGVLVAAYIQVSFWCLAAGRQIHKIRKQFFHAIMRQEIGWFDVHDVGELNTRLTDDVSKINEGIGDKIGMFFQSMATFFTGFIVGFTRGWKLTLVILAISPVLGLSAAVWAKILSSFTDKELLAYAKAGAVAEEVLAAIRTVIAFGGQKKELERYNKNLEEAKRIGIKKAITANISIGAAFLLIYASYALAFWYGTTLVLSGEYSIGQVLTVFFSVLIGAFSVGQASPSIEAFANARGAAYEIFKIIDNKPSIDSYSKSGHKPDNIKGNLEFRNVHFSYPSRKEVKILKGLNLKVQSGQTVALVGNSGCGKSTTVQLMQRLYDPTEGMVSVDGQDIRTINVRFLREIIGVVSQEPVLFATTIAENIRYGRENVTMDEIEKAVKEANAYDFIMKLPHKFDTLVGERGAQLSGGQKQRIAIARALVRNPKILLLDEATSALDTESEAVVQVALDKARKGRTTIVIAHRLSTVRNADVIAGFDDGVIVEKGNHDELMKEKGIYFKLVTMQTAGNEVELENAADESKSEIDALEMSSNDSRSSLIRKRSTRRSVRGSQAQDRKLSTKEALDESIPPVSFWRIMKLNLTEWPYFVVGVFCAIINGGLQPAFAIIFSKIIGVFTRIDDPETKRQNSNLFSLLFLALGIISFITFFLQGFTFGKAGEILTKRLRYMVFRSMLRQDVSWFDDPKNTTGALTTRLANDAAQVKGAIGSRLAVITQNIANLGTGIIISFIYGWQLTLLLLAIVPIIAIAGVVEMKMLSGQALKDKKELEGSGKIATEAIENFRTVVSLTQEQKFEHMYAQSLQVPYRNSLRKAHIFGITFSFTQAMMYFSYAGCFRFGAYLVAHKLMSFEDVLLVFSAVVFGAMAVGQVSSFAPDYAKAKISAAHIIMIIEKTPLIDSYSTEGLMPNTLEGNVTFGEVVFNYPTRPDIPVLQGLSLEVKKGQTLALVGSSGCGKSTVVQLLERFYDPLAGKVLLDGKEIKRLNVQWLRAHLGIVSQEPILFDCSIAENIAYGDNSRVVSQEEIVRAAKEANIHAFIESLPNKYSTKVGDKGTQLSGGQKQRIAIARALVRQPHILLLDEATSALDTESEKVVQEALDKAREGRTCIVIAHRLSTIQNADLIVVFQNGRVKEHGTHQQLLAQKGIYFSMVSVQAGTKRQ

Regarding `[O-][S+](c1ccc(Cl)cc1)c1ccc2c(c1)B(O)OC2` (stereo not shown) [6-(4-chlorophenylsulfinyl)benzo[c][1,2]oxaborol-1(3H)-ol], in series [1], the “inhibition of a cytochrome P450 enzyme” value was “does not inhibit”. In addition, the mice parasite free in series [2] came out at 100%; in series [3] (after 10 days, 20 mg/kg), 100%. For the same compound, the half-life in series [4] is above 5.83 h.

For the compound `O=C(Nc1ccc2c(c1)B(O)OC2)c1cc(F)ccc1C(F)(F)F` [H17, 5-Fluoro-N-(1-hydroxy-1,3-dihydro-benzo[c][1,2]oxaborol-6-yl)-2-trifluoromethyl-benzamide], in series [3] (route po), the “T. brucei Minimum Effective Dose” value is 5 mg/kg, bid × 4 days. Also, the “mice parasite free for at least 60 days” value in series [5] (additional results) was determined as 100%.

For the compound `O=C(Nc1ccc2c(c1)B(O)OC2)c1ccccc1Cl` [H7, 2-Chloro-N-(1-hydroxy-1,3-dihydro-benzo[c][1,2]oxaborol-6-yl)-benzamide], in series [3] (route po), the “T. brucei Minimum Effective Dose” value was 10 mg/kg, bid × 4 days. Also, the “mice parasite free for at least 100 days” value in series [5] (additional results) was determined as 100%.

For the compound `N=C(N)c1ccc(/N=N/Nc2ccc(C(=N)N)cc2)cc1` [Diminazene, reference compound], the “day by which all animals relapsed to exhibit blood parasitemia” value in series [5] (treated on Day 21 post-infection) is at most 53 days.

Take `O=C(Nc1ccc2c(c1)B(O)OC2)c1ccccc1C(F)(F)F` [H1, N-(1-hydroxy-1,3-dihydrobenzo[c][1,2]oxaborol-6-yl)-2-(trifluoromethyl)benzamide]: the “T. brucei Minimum Effective Dose” value in series [3] (route ip) is 10 mg/kg, bid × 4 days.

One may read the IC50 as the concentration that gives 50% inhibition. A lower IC50 goes with greater potency in that assay. For the compound `CCCCCCCCCCCCCCCCOP(=O)([O-])OCC[N+](C)(C)C` [miltefosin], the IC50 in series [6] stood at 4.3 µM.

In the case of `O=C(Nc1ccc2c(c1)B(O)OC2)c1ccc(F)cc1C(F)(F)F` [H19, 4-Fluoro-N-(1-hydroxy-1,3-dihydro-benzo[c][1,2]oxaborol-6-yl)-2-trifluoromethyl-benzamide], the “T. brucei Minimum Effective Dose” value in series [3] (route po) is given as 5 mg/kg, bid × 4 days. Further, the “mice parasite free for at least 100 days” value in series [5] (additional results) was determined as 100%.

For the compound `O=C(Nc1ccc2c(c1)B(O)OC2)c1ccccc1C(F)(F)F` [N-(1-hydroxy-1,3-dihydrobenzo[c][1,2]oxaborol-6-yl)-2-(trifluoromethyl)benzamide], the “substrate for the P-gp transporter” value at P-gp transporter was “not a substrate”. Also, the “inhibition of a cytochrome P450 enzyme” value in series [1] is “does not inhibit”. The mice parasite free in series [3] (after 30 days, 10 mg/kg) was found to be 100%. Further, the figures for the half-life in series [7] and in series [4] were 3.33 to 3.75 h and 5.67 to 6 h, respectively. Moreover, the “mice with absence of blood parasites through Day 91” value in series [5] (50 mg/kg BID for 7 days IP, starting at Day 21 post-infection) is on record as 70%.
